The results in this text go back to article PMC6153204 (2018).

The test system of assay [1] is A09 (DNA, aptamer) GACATATTCAGTCTGACAGCGGAAGCGGGTCAGTCCAACTCACGGTCTCGCATGCACGGGAGATGGACGAATATCGTCTAGC
Nature of the assay: plate saturation binding, absorbance at 450 nm, nonlinear regression. The conditions noted are these: varied aptamer, fixed rongalite; immobilised compound (implied by plate assay); buffer not stated.

In assay [2] the test system is B09 (DNA, aptamer) GCTAGACGATATTCGTCCATCTCCCGTGCATGCGAGACCGTGAGTTGGACTGACCCGCTTCCGCTGTCAGACTGAATATGTC
The assay is described as above. Particulars: varied aptamer, fixed rongalite; immobilised compound (implied by plate assay); buffer not stated.

In the case of `O=S(O)CO`, the Kd (usually the constant that tells how readily two partners part at equilibrium) in assay [1] was 0.06112 ± 0.01636 µM; in assay [2], 0.03981 ± 0.01273 µM.
